“And” between values parts separate entries of the source, which are not always exact repeats. Equal entries are not always repeated.

The text below walks through data of patent US10221177B2 (HYDRA BIOSCIENCES, INC., priority 2014, dated 2019).

One assay concerns the target human TRPA1 (Homo sapiens (Human), UniProt O75762). Kind of assay: In vitro inhibition of human TRPA1, whole cell patch configuration. The note with it: current activation 10 μM AITC, tested concentrations 320 pM to 3.2 μM, read-out: hTRPA1 IC50. It is filed as cell-based. The gist of the method:
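Compound antagonism measured from voltage ramps (±100 or ±80 mV, 400 ms, every 4 s from −40 mV), analysed at −80 and 80 mV, or at constant −60 mV. HEPES-buffered NaCl bath, pH 7.4, EGTA or 2 mM Ca2+; temperature set by perfusion, within ±2° C; no junction-potential correction.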

In assay [1] the test system is CFA-induced cold hypersensitivity of the hind paw. Nature of the assay: CFA-induced pain test, cold hypersensitivity (cold plate paw withdrawal latency). The format is in vivo. The note with it: cold plate 1° C., solution in 4% DMSO, 5% Tween-80; for Average PWL Post-Treatment / PWL Change: 1-2 hour pre-treatment; for Average PWL Post-CFA: baseline before dosing.
For assay [2], the system named is formalin-induced pain behaviors in the rat. Nature of the assay: Formalin-induced pain test (formalin model), duration of pain behaviors. The format is in vivo. The gist of the method:
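Rats dosed orally with vehicle or compound (solutions with DMSO, Solutol, Labrasol, Tween-80, Cremophor EL, or methylcellulose suspensions) one hour before intraplantar injection of 50 μL 3% formalin into hind paw. Duration of pain behaviors counted by blinded observer; Phase I covers 0-5 min; comparison to vehicle.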

Setting [3] is: 1 mg/kg PO, 25% Cremophor EL, and 66% water.
Setting [4] is: 3 mg/kg PO, 25% Cremophor EL, and 66% water.
[5] abbreviates: 10 mg/kg PO, 25% Cremophor EL, and 66% water.
Where [6] appears, read: 1 mg/kg PO one hour prior to formalin, solution in 4% DMSO, 5% Tween-80, 25% Cremophor EL, 66% water.
Setting [7] is: 1 mg/kg PO one hour prior to formalin, solution in 8% DMSO and 92% Labrasol.
[8] abbreviates: 3 mg/kg PO one hour prior to formalin, solution in 4% DMSO, 5% Tween-80, 25% Cremophor EL, 66% water.
Where [9] appears, read: 3 mg/kg PO one hour prior to formalin, solution in 8% DMSO and 92% Labrasol.
Setting [10] is: 10 mg/kg PO one hour prior to formalin, solution in 4% DMSO, 5% Tween-80, 25% Cremophor EL, 66% water.
The mark [11] stands for this setting: 10 mg/kg PO one hour prior to formalin, solution in 8% DMSO and 92% Labrasol.
The mark [12] stands for this setting: 30 mg/kg PO one hour prior to formalin, solution in 8% DMSO and 92% Labrasol.
The mark [13] stands for this setting: 0.3 mg/kg PO, 20% Cremophor EL, and 71% water.
Setting [14] is: 1 mg/kg PO, 20% Cremophor EL, and 71% water.
Setting [15] is: 3 mg/kg PO, 20% Cremophor EL, and 71% water.
Setting [16] is: 1 mg/kg PO one hour prior to formalin, solution in 4% DMSO, 5% Tween-80, 20% Cremophor EL, 71% water.
[17] abbreviates: 3 mg/kg PO one hour prior to formalin, solution in 4% DMSO, 5% Tween-80, 20% Cremophor EL, 71% water.
The mark [18] stands for this setting: 10 mg/kg PO one hour prior to formalin, solution in 4% DMSO, 5% Tween-80, 20% Cremophor EL, 71% water.

human TRPA1, sequence (O75762 whole entry, the tested form may be a part): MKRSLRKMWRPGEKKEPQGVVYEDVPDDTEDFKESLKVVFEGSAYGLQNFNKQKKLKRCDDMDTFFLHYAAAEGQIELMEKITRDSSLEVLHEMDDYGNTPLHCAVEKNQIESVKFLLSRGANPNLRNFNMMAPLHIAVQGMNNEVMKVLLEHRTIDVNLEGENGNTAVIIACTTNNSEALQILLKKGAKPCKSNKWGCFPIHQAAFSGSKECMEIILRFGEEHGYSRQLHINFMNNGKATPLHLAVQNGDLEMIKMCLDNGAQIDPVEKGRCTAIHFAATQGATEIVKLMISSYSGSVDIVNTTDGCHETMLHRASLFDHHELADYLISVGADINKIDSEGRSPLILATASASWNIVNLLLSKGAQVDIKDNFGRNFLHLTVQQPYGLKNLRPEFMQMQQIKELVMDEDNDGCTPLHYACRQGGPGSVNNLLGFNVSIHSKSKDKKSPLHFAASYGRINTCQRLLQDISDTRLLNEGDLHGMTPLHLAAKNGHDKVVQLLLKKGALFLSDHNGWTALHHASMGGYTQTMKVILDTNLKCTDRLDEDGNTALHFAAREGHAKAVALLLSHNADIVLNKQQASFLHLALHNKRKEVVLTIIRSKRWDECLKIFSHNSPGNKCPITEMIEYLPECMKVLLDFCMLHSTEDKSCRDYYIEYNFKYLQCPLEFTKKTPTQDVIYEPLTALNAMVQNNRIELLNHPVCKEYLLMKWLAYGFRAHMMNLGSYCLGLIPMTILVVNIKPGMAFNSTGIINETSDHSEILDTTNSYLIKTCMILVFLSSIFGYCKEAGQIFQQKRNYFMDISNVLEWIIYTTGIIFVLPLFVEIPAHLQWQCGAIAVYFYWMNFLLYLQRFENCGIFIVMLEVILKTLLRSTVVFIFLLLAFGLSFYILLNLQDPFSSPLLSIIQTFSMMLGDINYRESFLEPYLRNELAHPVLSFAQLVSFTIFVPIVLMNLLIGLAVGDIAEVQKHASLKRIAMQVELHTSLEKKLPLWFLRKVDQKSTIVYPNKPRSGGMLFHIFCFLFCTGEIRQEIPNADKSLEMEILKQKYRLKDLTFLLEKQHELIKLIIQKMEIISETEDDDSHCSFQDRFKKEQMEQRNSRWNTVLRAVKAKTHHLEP

As for `CC(=O)Cn1c(=O)c2c(ncn2[C@@H](C)C(=O)Nc2csc(-c3cnc(N4CC5CC5C4)nc3)n2)n(C)c1=O` (stereo partly drawn) [Compound 153, (2S)—N-(2-(2-(3-azabicyclo[3.1.0]hexan-3-yl)pyrimidin-5-yl)thiazol-4-yl)-2-(3-methyl-2,6-dioxo-1-(2-oxopropyl)-2,3-dihydro-1H-purin-7(6H)-yl)propanamide], the IC50 on human TRPA1 is 2 nM. Further, the “Average PWL Post-Treatment” value amounted to 178.1 in assay [1] (setting [3]), 223.6 in assay [1] (setting [4]) and 247.1 in assay [1] (setting [5]). For the same compound, the entries for the “PWL Change” value in assay [1] (setting [3]), in assay [1] (setting [4]) and in assay [1] (setting [5]) were 85.6 s, 130.8 s and 154.3 s, respectively. For the same compound, the “Average PWL Post-CFA” value in assay [1] (group 1 mg/kg PO, 25% Cremophor EL, and 66% water) is listed as 92.5; in assay [1] (group 3 mg/kg PO, 25% Cremophor EL, and 66% water) it was 92.8; in assay [1] (group 10 mg/kg PO, 25% Cremophor EL, and 66% water) it was 92.7. The “Duration (0-2 Minutes) Average” value came to 71.4 s in assay [2] (setting [6]); 84.5 s in assay [2] (setting [7]); 81.5 s in assay [2] (setting [8]); 86.4 s in assay [2] (setting [9]); 50.1 s in assay [2] (setting [10]); 87.9 s in assay [2] (setting [11]). Further, in assay [2] (setting [12]), the “Duration (0-2 Minutes) Average” value is 31.9 s and 52.8 s. In addition, the “Duration (0-5 Minutes) Average” value was found to be 164.6 s in assay [2] (setting [6]); 172.5 s in assay [2] (setting [7]); 216.9 s in assay [2] (setting [8]); 198.8 s in assay [2] (setting [9]); 160.3 s in assay [2] (setting [10]); 214.6 s in assay [2] (setting [11]). Moreover, the “Duration (0-5 Minutes) Average” value in assay [2] (setting [12]) was 173.1 s and 173.4 s.

`Cc1noc(Cn2c(=O)c3c(ncn3[C@@H](C)C(=O)Nc3cncc(-c4cnc(C(F)(F)F)nc4)n3)n(C)c2=O)n1` [Compound 160, (S)-2-(3-methyl-1-((3-methyl-1,2,4-oxadiazol-5-yl)methyl)-2,6-dioxo-2,3-dihydro-1H-purin-7(6H)-yl)-N-(6-(2-(trifluoromethyl)pyrimidin-5-yl)pyrazin-2-yl)propanamide]: on human TRPA1, the IC50 was 20 nM. The “Average PWL Post-Treatment” value worked out at 173.0 in assay [1] (setting [13]), 269.6 in assay [1] (setting [14]) and 253.6 in assay [1] (setting [15]). The “PWL Change” value in assay [1] (setting [13]) is 64.7 s; in assay [1] (setting [14]), 161.5 s; in assay [1] (setting [15]) it was 146.2 s. The “Average PWL Post-CFA” value amounted to 108.2 in assay [1] (group 0.3 mg/kg PO, 20% Cremophor EL, and 71% water); 108.1 in assay [1] (group 1 mg/kg PO, 20% Cremophor EL, and 71% water); 107.5 in assay [1] (group 3 mg/kg PO, 20% Cremophor EL, and 71% water). The “Duration (0-2 Minutes) Average” value in assay [2] (setting [16]) was 68.6 s; in assay [2] (setting [17]) it was 78.1 s; in assay [2] (setting [18]) it was 42.5 s. Also, the “Duration (0-5 Minutes) Average” value in assay [2] (setting [16]) was found to be 167.3 s; in assay [2] (setting [17]), 232.0 s; in assay [2] (setting [18]), 150.4 s.

A word on the IC50: it is the concentration at which inhibition is half-maximal.
